# Reference: US12459932B2, “KIF18A inhibitors” (AMGEN INC., priority 2018, dated 2025)
# pIC50: −log10 of the molar value.
# Target: T1, Recombinant human KIF18A (1-467 His-tagged) (Homo sapiens, UniProt Q8NI77)
# T1 construct: Recombinant human KIF18A (1-467 His-tagged) protein; His
# Experiment: KIF18A Enzyme Assay: microtubule-stimulated ATPase activity (ADP-Glo)
# Format: biochemical
# Details: 30 nM KIF18A, 30 μg/mL pig microtubules, ATP 75 μM (Km), ADP-Glo luminescence
# Description: KIF18A Enzyme Assay: Microtubule-stimulated ATPase activity assay is used to measure KIF18A enzyme activity after treatment with compound. Compounds were 2-fold serially diluted in DMSO (Sigma Inc) over 22-point concentration range. […] The assay measures ADP formed from the ATPase reaction. […] Read luminescence using EnVision microplate reader with ultra-luminescence module (Perkin Elmer Inc). Concentration-response curve-fitting and IC50 determination was performed using Genedata Screener Software (Standard 15.0.1, Genedata Inc) with a four-parameter logistic regression fit model.
# T1 sequence (Q8NI77 1-467): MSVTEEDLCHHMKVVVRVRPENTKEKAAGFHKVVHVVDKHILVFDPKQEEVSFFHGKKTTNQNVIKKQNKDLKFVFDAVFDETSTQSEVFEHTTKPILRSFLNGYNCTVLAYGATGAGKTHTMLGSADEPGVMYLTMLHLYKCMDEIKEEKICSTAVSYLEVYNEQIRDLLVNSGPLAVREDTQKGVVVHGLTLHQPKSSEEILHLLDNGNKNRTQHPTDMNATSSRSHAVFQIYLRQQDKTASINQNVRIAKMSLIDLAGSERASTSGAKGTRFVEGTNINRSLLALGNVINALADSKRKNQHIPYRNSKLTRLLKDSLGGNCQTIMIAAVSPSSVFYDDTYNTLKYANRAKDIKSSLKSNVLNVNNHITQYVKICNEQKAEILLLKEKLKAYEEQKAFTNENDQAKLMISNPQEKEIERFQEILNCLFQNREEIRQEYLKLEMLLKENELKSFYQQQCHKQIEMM
# T1 sequence (P02550 whole entry partner): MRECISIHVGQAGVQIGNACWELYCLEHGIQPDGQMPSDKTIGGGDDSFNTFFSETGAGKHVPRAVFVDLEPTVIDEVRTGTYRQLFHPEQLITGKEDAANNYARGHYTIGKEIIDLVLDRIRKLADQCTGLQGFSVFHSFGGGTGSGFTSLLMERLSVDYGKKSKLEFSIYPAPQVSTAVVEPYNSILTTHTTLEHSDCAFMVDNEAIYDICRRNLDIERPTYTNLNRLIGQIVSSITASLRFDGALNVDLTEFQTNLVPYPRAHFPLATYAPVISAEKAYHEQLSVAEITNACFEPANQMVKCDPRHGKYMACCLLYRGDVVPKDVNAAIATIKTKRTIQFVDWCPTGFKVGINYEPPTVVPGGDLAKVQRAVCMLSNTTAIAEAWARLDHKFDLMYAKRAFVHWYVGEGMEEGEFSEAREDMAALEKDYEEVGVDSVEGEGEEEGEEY
# T1 sequence (P02554 whole entry partner): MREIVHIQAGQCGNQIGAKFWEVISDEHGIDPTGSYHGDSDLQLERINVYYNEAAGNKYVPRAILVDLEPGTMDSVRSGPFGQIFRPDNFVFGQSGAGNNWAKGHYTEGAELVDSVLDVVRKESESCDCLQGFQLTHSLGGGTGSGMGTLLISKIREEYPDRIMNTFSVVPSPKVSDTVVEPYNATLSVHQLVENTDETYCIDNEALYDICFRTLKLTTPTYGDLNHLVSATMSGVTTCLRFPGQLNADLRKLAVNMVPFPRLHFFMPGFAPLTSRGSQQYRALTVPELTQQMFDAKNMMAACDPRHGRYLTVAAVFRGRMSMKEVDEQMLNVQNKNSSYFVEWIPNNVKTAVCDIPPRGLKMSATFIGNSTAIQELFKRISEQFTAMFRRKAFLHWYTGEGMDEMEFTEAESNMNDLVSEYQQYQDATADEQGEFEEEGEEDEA
row,Structure (SMILES),pIC50
1,"C[C@@H]1CN(c2cccc(NC(=O)c3ccc(S(=O)(=O)CCO)cc3N3CCC4(CC3)CC4)n2)CCO1 [Example 2-1, (R)-4-((2-Hydroxyethyl)sulfonyl)-N-(6-(2-methylmorpholino)pyridin-2-yl)-2-(6-azaspiro[2.5]octan-6-yl)benzamide]",7.49
2,"Cc1cc(NC(=O)c2ccc(S(=O)(=O)NCCO)cc2N2CCC3(CC2)CC3)nc(N2CCC(F)(F)CC2)c1 [Example 1-2, N-(6-(4,4-Difluoropiperidin-1-yl)-4-methylpyridin-2-yl)-4-(N-(2-hydroxyethyl)sulfamoyl)-2-(6-azaspiro[2.5]octan-6-yl)benzamide]",7.49
3,"CC1(O)CCN(c2cccc(NC(=O)c3ccc(NS(=O)(=O)C4(C)CC4)cc3N3CCC4(CC3)CC4)n2)CC1 [Example 3-8, N-(6-(4-Hydroxy-4-methylpiperidin-1-yl)pyridin-2-yl)-4-((1-methylcyclopropane)-1-sulfonamido)-2-(6-azaspiro[2.5]octan-6-yl)benzamide]",6.61
4,"C[C@@H]1CN(c2cccc(NC(=O)c3ccc(NS(=O)(=O)C4CCC4)cc3N3CCC4(CC3)CC4)n2)CCO1 [Example 7-9, (R)-4-(Cyclobutanesulfonamido)-N-(6-(2-methylmorpholino)pyridin-2-yl)-2-(6-azaspiro[2.5]octan-6-yl)benzamide]",7.21
5,"C[C@@H]1CN(c2cccc(NC(=O)c3ccc(S(C)(=O)=O)cc3N3CCC4(CC3)CC4)n2)CCO1 [Example 4-13, (R)-N-(6-(2-Methylmorpholino)pyridin-2-yl)-4-(methylsulfonyl)-2-(6-azaspiro[2.5]octan-6-yl)benzamide]",7.16
6,"CC(O)COc1cccc(NC(=O)c2ccc(NS(=O)(=O)CCO)cc2N2CCC3(CC2)CC3)n1 (stereo not shown) [Example 16-4, 4-((2-Hydroxyethyl)sulfonamido)-N-(6-(2-hydroxypropoxy)pyridin-2-yl)-2-(6-azaspiro[2.5]octan-6-yl)benzamide]",6.94
7,"Cc1cc(NC(=O)c2ccc(NS(=O)(=O)CC3CC3)cc2N2CCC3(CC2)CC3)nc(N2CC(F)(F)C2)c1 [Example 7-31, 4-((Cyclopropylmethyl)sulfonamido)-N-(6-(3,3-difluoroazetidin-1-yl)-4-methylpyridin-2-yl)-2-(6-azaspiro[2.5]octan-6-yl)benzamide]",7.23
8,"Cc1cc(NC(=O)c2ccc(NS(=O)(=O)CC3CC3)cc2N2CCC3(CC2)CC3)nc(N2CCC(F)(F)CC2)c1 [Example 7-24, 4-((Cyclopropylmethyl)sulfonamido)-N-(6-(4,4-difluoropiperidin-1-yl)-4-methylpyridin-2-yl)-2-(6-azaspiro[2.5]octan-6-yl)benzamide]",6.73
9,"Cc1cc(NC(=O)c2ccc(S(=N)(=O)C3CC3)cc2N2CCC3(CC2)CC3)nc(N2CCO[C@H](C)C2)c1 (stereo in doubt) [Example 29-2, 2-(6-Azaspiro[2.5]octan-6-yl)-4-(R-cyclopropylsulfonimidoyl)-N-(4-methyl-6-((2R)-2-methyl-4-morpholinyl)-2-pyridinyl)benzamide]",7.23
10,"C[C@@H]1CN(c2cccc(NC(=O)c3ccc(S(=N)(=O)C4CC4)cc3N3CCC4(CC3)CC4)n2)CCO1 (single isomer, unassigned) [Example 12-1]",7.07
11,"C[C@@H]1CN(c2cccc(NC(=O)c3ccc(NS(C)(=O)=O)cc3N3CCC4(CC3)CC4)n2)CCO1 [Example 7-2, (R)-N-(6-(2-Methylmorpholino)pyridin-2-yl)-4-(methylsulfonamido)-2-(6-azaspiro[2.5]octan-6-yl)benzamide]",7.41
12,"C[C@@H]1CN(c2cccc(NC(=O)c3ccc(S(=O)(=O)C4(C)COC4)cc3N3CCC4(CC3)CC4)n2)CCO1 [Example 2-3, (R)-N-(6-(2-Methylmorpholino)pyridin-2-yl)-4-((3-methyloxetan-3-yl)sulfonyl)-2-(6-azaspiro[2.5]octan-6-yl)benzamide]",6.85
13,"Cc1cc(NC(=O)c2ccc(S(=O)(=O)CCO)cc2N2CCC3(CC2)CC3)nc(N2CCO[C@H](C)C2)c1 [Example 2-7, (R)-4-((2-Hydroxyethyl)sulfonyl)-N-(4-methyl-6-(2-methylmorpholino)pyridin-2-yl)-2-(6-azaspiro[2.5]octan-6-yl)benzamide]",6.99
14,"C[C@@H]1CN(c2cccc(NC(=O)c3ccc(S(=O)(=O)CC(C)(C)O)cc3N3CCC4(CC3)CC4)n2)CCO1 [Example 2-6, (R)-4-((2-Hydroxy-2-methylpropyl)sulfonyl)-N-(6-(2-methylmorpholino)pyridin-2-yl)-2-(6-azaspiro[2.5]octan-6-yl)benzamide]",6.96
15,"Cc1cc(NC(=O)c2ccc(NS(=O)(=O)CCO)cc2N2CCC3(CC2)CC3)nc(N2CCC(F)(F)CC2)c1 [Example 6, N-(6-(4,4-Difluoropiperidin-1-yl)-4-methylpyridin-2-yl)-4-((2-hydroxyethyl)sulfonamido)-2-(6-azaspiro[2.5]octan-6-yl)benzamide]",7.33
16,"Cc1cc(NC(=O)c2ccc(NS(=O)(=O)CCO)cc2N2CCC3(CC2)CC3)nc(N2CCOCC2)c1 [Example 7-17, 4-((2-Hydroxyethyl)sulfonamido)-N-(4-methyl-6-morpholinopyridin-2-yl)-2-(6-azaspiro[2.5]octan-6-yl)benzamide]",7.77

row,Structure (SMILES),pIC50
1,"CS(=O)(=O)c1ccc(C(=O)Nc2cccc(C3CC3)n2)c(N2CCC3(CC2)CC3)c1 [Example 4-4, N-(6-Cyclopropylpyridin-2-yl)-4-(methylsulfonyl)-2-(6-azaspiro[2.5]octan-6-yl)benzamide]",6.74
2,"O=C(Nc1cccc(N2CCC(F)(F)CC2)n1)c1ccc(NS(=O)(=O)CCO)cc1N1CCC2(CC1)CC2 [Example 7-26, N-(6-(4,4-Difluoropiperidin-1-yl)pyridin-2-yl)-4-((2-hydroxyethyl)sulfonamido)-2-(6-azaspiro[2.5]octan-6-yl)benzamide]",7.64
3,"CC1(S(=O)(=O)Nc2ccc(C(=O)Nc3cccc(N4CCC[C@@](C)(O)C4)n3)c(N3CCC4(CC3)CC4)c2)CC1 [Example 3-10, (R)-N-(6-(3-Hydroxy-3-methylpiperidin-1-yl)pyridin-2-yl)-4-((1-methylcyclopropane)-1-sulfonamido)-2-(6-azaspiro[2.5]octan-6-yl)benzamide]",6.84
4,"CS(=O)(=O)Cc1ccc(C(=O)Nc2cccc(N3CCC[C@@H](O)C3)n2)c(N2CCC3(CC2)CC3)c1 [Example 4, (R)-N-(6-(3-hydroxypiperidin-1-yl)pyridin-2-yl)-4-((methylsulfonyl)methyl)-2-(6-azaspiro[2.5]octan-6-yl)benzamide]",7.03
5,"CC(C)(O)c1cccc(NC(=O)c2ccc(S(C)(=O)=O)cc2N2CCC3(CC2)CC3)n1 [Example 4-7, N-(6-(2-Hydroxypropan-2-yl)pyridin-2-yl)-4-(methylsulfonyl)-2-(6-azaspiro[2.5]octan-6-yl)benzamide]",6.50
6,"Cc1cc(NC(=O)c2ccc(NS(=O)(=O)C3COC3)cc2N2CCC3(CC2)CC3)nc(N2CC(F)(F)C2)c1 [Example 7-32, N-(6-(3,3-Difluoroazetidin-1-yl)-4-methylpyridin-2-yl)-4-(oxetane-3-sulfonamido)-2-(6-azaspiro[2.5]octan-6-yl)benzamide]",7.60
7,"Cc1cc(NC(=O)c2ccc(NS(=O)(=O)CCO)cc2N2CCC3(CC2)CC3)nc(OCCCC(F)(F)F)c1 [Example 17-3, 4-((2-Hydroxyethyl)sulfonamido)-N-(4-methyl-6-(4,4,4-trifluorobutoxy)pyridin-2-yl)-2-(6-azaspiro[2.5]octan-6-yl)benzamide]",6.74
8,"Cc1cc(NC(=O)c2ccc(NS(=O)(=O)[C@@H](C)CO)cc2N2CCC3(CC2)CC3)nc(N2CCO[C@H](C)C2)c1 (single isomer, unassigned) [Example 9-12]",7.41
9,"Cc1cc(NC(=O)c2ccc(NS(=O)(=O)[C@@H](C)CO)cc2N2CCC3(CC2)CC3)nc(N2CCC(F)(F)CC2)c1 (single isomer, unassigned) [Example 9-7]",7.57
10,"C[C@H](CO)S(=O)(=O)Nc1ccc(C(=O)Nc2cccc(N3CCO[C@@H](C)C3)n2)c(N2CCC3(CC2)CC3)c1 (single isomer, unassigned) [Example 9-17]",7.62
11,"CC(C)(C)NS(=O)(=O)c1ccc(C(=O)Nc2cccc(N3CCO[C@H](CO)C3)n2)c(N2CCC3(CC2)CC3)c1 [Example 4-3, (S)-4-(N-(tert-Butyl)sulfamoyl)-N-(6-(2-(hydroxymethyl)morpholino)pyridin-2-yl)-2-(6-azaspiro[2.5]octan-6-yl)benzamide]",7.07
12,"CC1(S(=O)(=O)Nc2ccc(C(=O)Nc3cccc(N4CCCC(F)(F)C4)n3)c(N3CCC4(CC3)CC4)c2)CC1 [Example 3-14, N-(6-(3,3-Difluoropiperidin-1-yl)pyridin-2-yl)-4-((1-methylcyclopropane)-1-sulfonamido)-2-(6-azaspiro[2.5]octan-6-yl)benzamide]",7.42
13,"Cc1cc(NC(=O)c2ccc(NS(=O)(=O)C3(C)CC3)cc2N2CCC3(CC2)CC3)nc(N2CC(F)(F)C2)c1 [Example 3-19, N-(6-(3,3-Difluoroazetidin-1-yl)-4-methylpyridin-2-yl)-4-((1-methylcyclopropane)-1-sulfonamido)-2-(6-azaspiro[2.5]octan-6-yl)benzamide]",6.99
14,"Cc1cc(NC(=O)c2ccc(S(=O)(=O)NC3(C)COC3)cc2N2CCC3(CC2)CC3)nc(N2CCO[C@H](C)C2)c1 [Example 1-8, (R)-N-(4-Methyl-6-(2-methylmorpholino)pyridin-2-yl)-4-(N-(3-methyloxetan-3-yl)sulfamoyl)-2-(6-azaspiro[2.5]octan-6-yl)benzamide]",6.92
15,"CCS(=O)(=O)Nc1ccc(C(=O)Nc2cccc(N3CCO[C@H](C)C3)n2)c(N2CCC3(CC2)CC3)c1 [Example 7-37, (R)-4-(Ethylsulfonamido)-N-(6-(2-methylmorpholino)pyridin-2-yl)-2-(6-azaspiro[2.5]octan-6-yl)benzamide]",7.30
